# Data from patent publication US11382328B2, “Rapid drug discovery methods for pathogen inactivation” (priority 2019, dated 2022).
# Read-outs that look alike come from different tables or passages of the source.
# System: E. coli strain W3110
# Test: Synergy assays: Biolog chemical sensitivity panels with Group IB metal, coefficient of drug interaction (CDI) from relative growth
# Format: cell-based
# Details: for CDI (coefficient of drug interaction), gold + biocide: Gold (μM); for CDI (coefficient of drug interaction), copper mixed with biocide: Copper (mM) section
# [1] = Copper (mM), 1st of 3 copper concentrations (head line not shown), biocide concentration 1 of 4, E. coli
# [2] = Copper (mM), 1st of 3 copper concentrations (head line not shown), biocide concentration 2 of 4, E. coli
# [3] = Copper (mM), 1st of 3 copper concentrations (head line not shown), biocide concentration 3 of 4, E. coli
# [4] = Copper (mM), 1st of 3 copper concentrations (head line not shown), biocide concentration 4 of 4, E. coli
# [5] = Copper (mM), 2nd of 3 copper concentrations (head line not shown), biocide concentration 1 of 4, E. coli
# [6] = Copper (mM), 2nd of 3 copper concentrations (head line not shown), biocide concentration 2 of 4, E. coli
# [7] = Copper (mM), 2nd of 3 copper concentrations (head line not shown), biocide concentration 3 of 4, E. coli
# [8] = Copper (mM), 2nd of 3 copper concentrations (head line not shown), biocide concentration 4 of 4, E. coli
# [9] = Copper (mM), 3rd of 3 copper concentrations (head line not shown), biocide concentration 1 of 4, E. coli
# [10] = Copper (mM), 3rd of 3 copper concentrations (head line not shown), biocide concentration 2 of 4, E. coli
# [11] = Copper (mM), 3rd of 3 copper concentrations (head line not shown), biocide concentration 3 of 4, E. coli
# [12] = Copper (mM), 3rd of 3 copper concentrations (head line not shown), biocide concentration 4 of 4, E. coli
# [13] = first of 3 gold concentrations, biocide concentration 1 of 4
# [14] = first of 3 gold concentrations, biocide concentration 2 of 4
# [15] = first of 3 gold concentrations, biocide concentration 3 of 4
# [16] = first of 3 gold concentrations, biocide concentration 4 of 4
# [17] = second of 3 gold concentrations, biocide concentration 3 of 4
# [18] = second of 3 gold concentrations, biocide concentration 4 of 4
# [19] = third of 3 gold concentrations, biocide concentration 1 of 4
# [20] = third of 3 gold concentrations, biocide concentration 2 of 4
# [21] = third of 3 gold concentrations, biocide concentration 3 of 4
# [22] = third of 3 gold concentrations, biocide concentration 4 of 4
# [23] = Silver 0.5 μM, biocide concentration 1 of 4
# [24] = Silver 0.5 μM, biocide concentration 2 of 4
# [25] = Silver 0.5 μM, biocide concentration 3 of 4
# [26] = Silver 0.5 μM, biocide concentration 4 of 4
# [27] = Silver 1.0 μM, biocide concentration 1 of 4
# [28] = Silver 1.0 μM, biocide concentration 2 of 4
# [29] = Silver 1.0 μM, biocide concentration 3 of 4
# [30] = Silver 1.0 μM, biocide concentration 4 of 4
# [31] = Silver 5.0 μM, biocide concentration 1 of 4
# [32] = Silver 5.0 μM, biocide concentration 2 of 4
# [33] = Silver 5.0 μM, biocide concentration 3 of 4
# [34] = Silver 5.0 μM, biocide concentration 4 of 4
substance,measurement,setting,value
colistin,CDI (coefficient of drug interaction),[1],0.95
same,CDI (coefficient of drug interaction),[2],0.98
same,CDI (coefficient of drug interaction),[3],Tox
same,CDI (coefficient of drug interaction),[4],Tox
same,CDI (coefficient of drug interaction),[5],0.82
same,CDI (coefficient of drug interaction),[6],0.87
same,CDI (coefficient of drug interaction),[7],Tox
same,CDI (coefficient of drug interaction),[8],Tox
same,CDI (coefficient of drug interaction),[9],0.63
same,CDI (coefficient of drug interaction),[10],0.45
same,CDI (coefficient of drug interaction),[11],Tox
same,CDI (coefficient of drug interaction),[12],Tox
same,"CDI (coefficient of drug interaction), gold + biocide",[13],1.10
same,"CDI (coefficient of drug interaction), gold + biocide",[14],1.18
same,"CDI (coefficient of drug interaction), gold + biocide",[15],Tox
same,"CDI (coefficient of drug interaction), gold + biocide",[16],Tox
same,"CDI (coefficient of drug interaction), gold + biocide","second of 3 gold concentrations, biocide concentration 2 of 4",0.95
same,"CDI (coefficient of drug interaction), gold + biocide",[17],Tox
same,"CDI (coefficient of drug interaction), gold + biocide",[18],Tox
same,"CDI (coefficient of drug interaction), gold + biocide",[19],1.09
same,"CDI (coefficient of drug interaction), gold + biocide",[20],0.14
same,"CDI (coefficient of drug interaction), gold + biocide",[21],Tox
same,"CDI (coefficient of drug interaction), gold + biocide",[22],Tox
same,CDI,[23],0.95
same,CDI,[24],0.75
same,CDI,[25],Tox
same,CDI,[26],Tox
same,CDI,[27],0.97
same,CDI,[28],0.24
same,CDI,[29],Tox
same,CDI,[30],Tox
same,CDI,[31],0.84
same,CDI,[32],0.08
same,CDI,[33],Tox
same,CDI,[34],Tox
gentamicin,"CDI (coefficient of drug interaction), copper mixed with biocide","1st of 3 copper concentrations (value not shown), 1st of four biocide concentrations",0.89
same,"CDI (coefficient of drug interaction), copper mixed with biocide","1st of 3 copper concentrations (value not shown), 2nd of four biocide concentrations",0.87
same,"CDI (coefficient of drug interaction), copper mixed with biocide","1st of 3 copper concentrations (value not shown), 3rd of four biocide concentrations",0.79
same,"CDI (coefficient of drug interaction), copper mixed with biocide","1st of 3 copper concentrations (value not shown), 4th of four biocide concentrations",0.86
same,"CDI (coefficient of drug interaction), copper mixed with biocide","2nd of 3 copper concentrations (value not shown), 1st of four biocide concentrations",0.78
same,"CDI (coefficient of drug interaction), copper mixed with biocide","2nd of 3 copper concentrations (value not shown), 2nd of four biocide concentrations",0.80
same,"CDI (coefficient of drug interaction), copper mixed with biocide","2nd of 3 copper concentrations (value not shown), 3rd of four biocide concentrations",0.74
same,"CDI (coefficient of drug interaction), copper mixed with biocide","2nd of 3 copper concentrations (value not shown), 4th of four biocide concentrations",1.54
same,"CDI (coefficient of drug interaction), copper mixed with biocide","3rd of 3 copper concentrations (value not shown), 1st of four biocide concentrations",0.61
same,"CDI (coefficient of drug interaction), copper mixed with biocide","3rd of 3 copper concentrations (value not shown), 2nd of four biocide concentrations",0.59
same,"CDI (coefficient of drug interaction), copper mixed with biocide","3rd of 3 copper concentrations (value not shown), 3rd of four biocide concentrations",0.58
same,"CDI (coefficient of drug interaction), copper mixed with biocide","3rd of 3 copper concentrations (value not shown), 4th of four biocide concentrations",0.61
same,CDI (coefficient of drug interaction),"Gold section of Table 5, first of three gold concentrations (μM, value not given), biocide concentration 1 of 4",0.97
same,CDI (coefficient of drug interaction),"Gold section of Table 5, first of three gold concentrations (μM, value not given), biocide concentration 2 of 4",1.00
same,CDI (coefficient of drug interaction),"Gold section of Table 5, first of three gold concentrations (μM, value not given), biocide concentration 3 of 4",0.99
same,CDI (coefficient of drug interaction),"Gold section of Table 5, second of three gold concentrations (μM, value not given), biocide concentration 1 of 4",0.97
same,CDI (coefficient of drug interaction),"Gold section of Table 5, second of three gold concentrations (μM, value not given), biocide concentration 2 of 4",0.99
same,CDI (coefficient of drug interaction),"Gold section of Table 5, second of three gold concentrations (μM, value not given), biocide concentration 3 of 4",1.00
same,CDI (coefficient of drug interaction),"Gold section of Table 5, second of three gold concentrations (μM, value not given), biocide concentration 4 of 4",1.00
same,CDI (coefficient of drug interaction),"Gold section of Table 5, third of three gold concentrations (μM, value not given), biocide concentration 2 of 4",0.97
same,CDI (coefficient of drug interaction),"Gold section of Table 5, third of three gold concentrations (μM, value not given), biocide concentration 3 of 4",1.00
same,CDI,[23],0.87
same,CDI,[24],0.86
same,CDI,[25],0.81
same,CDI,[26],0.79
same,CDI,[28],0.98
same,CDI,[29],0.42
same,CDI,[30],0.38
same,CDI,[31],1.00
same,CDI,[32],0.82
same,CDI,[33],0.74
same,CDI,[34],0.34
hydroxylamine,CDI (coefficient of drug interaction),,0.99
penimepicycline,CDI (coefficient of drug interaction),[1],0.91
same,CDI (coefficient of drug interaction),[2],1.07
same,CDI (coefficient of drug interaction),[3],Tox
same,CDI (coefficient of drug interaction),[4],Tox
same,CDI (coefficient of drug interaction),[5],0.70
same,CDI (coefficient of drug interaction),[6],0.87
same,CDI (coefficient of drug interaction),[7],Tox
same,CDI (coefficient of drug interaction),[8],Tox
same,CDI (coefficient of drug interaction),[9],0.51
same,CDI (coefficient of drug interaction),[10],0.64
same,CDI (coefficient of drug interaction),[11],Tox
same,CDI (coefficient of drug interaction),[12],Tox
same,"CDI (coefficient of drug interaction), gold + biocide",[13],1.07
same,"CDI (coefficient of drug interaction), gold + biocide",[14],1.12
same,"CDI (coefficient of drug interaction), gold + biocide",[15],Tox
same,"CDI (coefficient of drug interaction), gold + biocide",[16],Tox
same,"CDI (coefficient of drug interaction), gold + biocide",[17],Tox
same,"CDI (coefficient of drug interaction), gold + biocide",[18],Tox
same,"CDI (coefficient of drug interaction), gold + biocide",[19],0.90
same,"CDI (coefficient of drug interaction), gold + biocide",[20],0.80
same,"CDI (coefficient of drug interaction), gold + biocide",[21],Tox
same,"CDI (coefficient of drug interaction), gold + biocide",[22],Tox
same,CDI,[24],1.10
same,CDI,[25],Tox
same,CDI,[26],Tox
same,CDI,[27],0.91
same,CDI,[28],0.91
same,CDI,[29],Tox
same,CDI,[30],Tox
same,CDI,[31],0.49
same,CDI,[32],0.34
same,CDI,[33],Tox
same,CDI,[34],Tox
